Ten compounds from ChEMBL document CHEMBL1201862, “PubChem BioAssay data set” (2004) can be followed below.

Structures are written as SMILES.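 Protocol summary: plate cells (96-well), add compound at 5 concentrations, incubate 48 h, interpolate endpoints linearly. GI50 = concentration required for 50% inhibition of growth.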 Activity calls are given as the source filed them. No stated cut-off is given here; in the data, active = GI50 up to about 1.1 µM and inactive = higher.

What all share (assay): NCI-60 cell line screen, 48 h
Test [1] relates to TK-10.
In test [2] the test system is T47D.
Test [3] relates to NCI-H226.
Test [4] relates to HOP-62.
Test [5] concerns RXF 393.
Test [6] deals with UO-31.
The test system of test [7] is HCT-116.
The subject of test [8] is SF-268.
The subject of test [9] is OVCAR-3.
The subject of test [10] is SNB-19.
Test [11] concerns SN12C.
The subject of test [12] is EKVX.
The subject of test [13] is Malme-3M.
The subject of test [14] is CCRF-CEM.
In test [15] the test system is SR.
The test system of test [16] is HL-60.
Test [17] has as its system NCI-H522.
Test [18] relates to A549.
Test [19] relates to KM12.
In test [20] the test system is BT-549.

`O=C1CSC(=S)N1/N=C/c1ccc(Cl)c([N+](=O)[O-])c1`: the GI50 in test [1] was 53.5 µM (inactive); in [2] it was 23 µM (inactive); in test [3] it was 36.4 µM (inactive); in test [4], 30.6 µM (inactive); in [5], 33.8 µM (inactive); in test [6], 27.6 µM (inactive). For the same compound, the GI50 is 23 µM (inactive) in test [7]; 19.6 µM (inactive) in test [8]; 20.1 µM (inactive) in [9]; 22.9 µM (inactive) in test [10]; 25.8 µM (inactive) in test [11]; 27.9 µM (inactive) in test [12]. The GI50 was 19.1 µM (inactive) in test [13]; 7.35 µM (inactive) in test [14]; 22.5 µM (inactive) in [15]; 24.2 µM (inactive) in test [16]; 18.3 µM (inactive) in test [17]; 46.2 µM (inactive) in test [18]. For the same compound, the results for the GI50 in test [19] and in test [20] were 34.2 µM (inactive) and 19.8 µM (inactive), respectively.

As for `COC1=C(Cl)C(=O)c2c(O)ccc(O)c2C1=O`, the GI50 was 1.05 µM (active) in test [1]; 1.03 µM (active) in [2]; 11.2 µM (inactive) in test [3]; 0.873 µM (active) in [4]; 1.3 µM (inactive) in test [5]; 1.77 µM (inactive) in test [6]. In addition, the GI50 was 0.536 µM (active) in [7]; 2.43 µM (inactive) in test [8]; 0.476 µM (active) in test [9]; 5.98 µM (inactive) in test [10]; 1.31 µM (inactive) in [11]; 0.902 µM (active) in [12]. Besides, the GI50 in test [13] was 0.478 µM (active); in test [14], 0.18 µM (active); in test [15], 0.227 µM (active); in [16], 0.0393 µM (active); in [17], 0.119 µM (active); in [18], 4.01 µM (inactive). Besides, the values for the GI50 in test [19] and in [20] were 6.17 µM (inactive) and 1.82 µM (inactive), respectively.

Turning to `CN(C)[C@@H]1C(O)=C(C(=O)NCNc2nc3[nH]nnc3c(=O)[nH]2)C(=O)[C@@]2(O)C(O)=C3C(=O)c4c(O)cccc4[C@@](C)(O)[C@H]3C[C@@H]12`, the GI50 was 2.3 µM (inactive) in test [1]; 5.37 µM (inactive) in test [2]; 1.73 µM (inactive) in test [3]; 0.518 µM (active) in test [4]; 0.518 µM (active) in test [5]; 0.358 µM (active) in test [6]. Further, the GI50 in test [7] was 1.21 µM (inactive); in test [8] it was 1.01 µM (active); in test [9], 25.9 µM (inactive); in test [10], 86.1 µM (inactive); in [11], 0.743 µM (active); in test [12], 12.4 µM (inactive). Moreover, the GI50 was 0.773 µM (active) in test [13]; 0.228 µM (active) in [14]; 0.312 µM (active) in test [15]; 0.231 µM (active) in test [16]; 20.4 µM (inactive) in test [17]; 55.3 µM (inactive) in [18]. The results for the GI50 in [19] and in test [20] were 49.8 µM (inactive) and 6.7 µM (inactive), respectively.

For the compound `CC1(C)CC[C@]2(C(=O)O)CC[C@]3(C)C(=CC[C@@H]4[C@@]5(C)CC[C@H](OC6OC(CO)C(O)C(O)C6O)C(C)(C)[C@@H]5CC[C@]43C)[C@@H]2C1` (stereo not given in full), the GI50 is 1.82 µM (inactive) in test [2]; 1.77 µM (inactive) in [3]; 1.72 µM (inactive) in [4]; 1.98 µM (inactive) in [5]; 1.71 µM (inactive) in test [6]; 1.69 µM (inactive) in test [7]. Further, the GI50 is 1.83 µM (inactive) in [8]; 1.61 µM (inactive) in test [9]; 1.52 µM (inactive) in test [10]; 1.7 µM (inactive) in test [11]; 1.93 µM (inactive) in test [12]; 1.67 µM (inactive) in test [13]. The GI50 in test [14] is 2.22 µM (inactive); in test [15], 2.34 µM (inactive); in test [16], 2 µM (inactive); in [17] it was 1.45 µM (inactive); in [18], 1.68 µM (inactive); in test [19], 1.52 µM (inactive). The GI50 in test [20] was 1.31 µM (inactive).

Turning to `COc1ccc(OC)c(-c2cc(C(=O)O)c3cc4ccccc4cc3n2)c1`, the GI50 in test [1] was > 100 µM (inactive); in test [2], > 100 µM (inactive); in test [3], 37.3 µM (inactive); in [4] it was > 100 µM (inactive); in test [5], > 100 µM (inactive); in [7] it was > 100 µM (inactive). The GI50 in [8], in test [9], in test [10], in test [11], in [12] and in [13] was > 100 µM (inactive) in each case. Besides, the GI50 in test [15], in test [16], in [17], in [18], in test [19] and in test [20] was > 100 µM (inactive) in each case.

Regarding `O=C1CN(c2ccccc2)Cc2nc(Cl)ccc2N1`, the GI50 is > 100 µM (inactive) in test [1]; > 100 µM (inactive) in test [2]; > 100 µM (inactive) in test [3]; > 100 µM (inactive) in test [4]; 25.6 µM (inactive) in [5]; > 100 µM (inactive) in test [6]. For the same compound, the GI50 in test [7] is > 100 µM (inactive); in test [8], > 100 µM (inactive); in [10], > 100 µM (inactive); in test [11], > 100 µM (inactive); in [12], > 100 µM (inactive); in test [13], 58.1 µM (inactive). For the same compound, the GI50 in test [14], in test [15], in test [16], in test [17], in test [18] and in test [19] was > 100 µM (inactive) throughout. The GI50 in [20] was > 100 µM (inactive).

Turning to `Cn1c(N(CCO)CCO)cnc1[N+](=O)[O-]`, the GI50 in test [1], in test [2], in test [3], in test [4], in test [5] and in [6] was > 100 µM (inactive) each time. Further, the GI50 in [7], in test [8], in [9], in [10], in [12] and in [13] was > 100 µM (inactive) each time. For the same compound, the GI50 in test [14], in test [15], in [16], in test [17], in test [18] and in test [19] was > 100 µM (inactive) throughout. For the same compound, the GI50 in test [20] was > 100 µM (inactive).

Consider `CC(=O)N1C(OCc2ccccc2)CCN1c1ccccc1` (stereo not given), for which the GI50 in [1], in test [2], in [3], in test [4], in test [5] and in test [6] was > 10 µM (inactive) each time. Moreover, the GI50 in [7], in test [8], in [9], in [10], in test [11] and in test [13] was > 10 µM (inactive) throughout. Further, the GI50 in test [14], in [15], in [16], in [17], in [18] and in [20] was > 10 µM (inactive) each time.

On to `CC(=O)OCC1OC(Nc2ccc3nc(C)n(-c4cccc(C)c4)c(=O)c3c2)C(OC(C)=O)C(OC(C)=O)C1OC(C)=O` (stereo not given), for which the GI50 in [1], in test [2], in [3], in [4], in test [5] and in test [6] was > 62.5 µM (inactive) each time. For the same compound, the GI50 in test [7], in test [8], in test [9], in test [10], in test [11] and in test [12] was > 62.5 µM (inactive) in each case. Besides, the GI50 in test [13], in [15], in test [16], in [17], in [19] and in test [20] was > 62.5 µM (inactive) throughout.

In the case of `[O-][S+](CC1(O)CCCCC1)c1ccccc1` (stereo not given), the GI50 in test [1], in test [2], in [3], in test [4], in test [5] and in test [6] was > 100 µM (inactive) in each case. For the same compound, the GI50 in test [7], in [8], in test [10], in test [11], in [12] and in test [13] was > 100 µM (inactive) in each case. The GI50 in test [14], in test [15], in [16], in test [17], in test [18] and in [19] was > 100 µM (inactive) each time. The GI50 in test [20] is > 100 µM (inactive).
